Measurements taken from US20240197700A1, “Methods and Compositions for Treating Lysosomal Storage Disorders” (Sanford Health, priority 2021, published 2024).

Tested on: NCL PNCs
Experiment: LysoTracker signal in Batten disease primary neuronal cultures
Type: cell-based, mouse
Method: Specific experimental details are included in figure legends. In general, after collection and preparation, MEFs and PNCs were dosed with vehicle or semaglutide (10 nM, 100 nM. or 1 μM) on DIV3 and DIV5. On DIV7, cells were exposed to the following dyes: Hoechst 33342 (1:1000 dilution), LysoTracker™ Red DND-99 (1:10,000 dilution), fixed. and imaged. Mice were injected three times per week with vehicle or semaglutide (2.571 μg/mouse, 25.71 μg/mouse) beginning at wean. Body weight was measured at 4, 6, 8, 12, and 16 weeks of age. At 16 weeks of age, Cln3^Δex7/8 mice along with age matched wildtype control mice were CO2 euthanized and intracardially perfused with PBS. Brains were collected and placed on a 1 mm sagittal brain block. Brains were sliced at the midline and 3 mm right of the midline. The 3 mm sagittal piece was flash frozen with −50° C. isopentane and then sectioned on a cryostat at 16 μm and placed on slides. For ASM measurements, slides were counterstained with DAPI. The other hemisphere was fixed in 4% PFA and sectioned at 50 microns on a vibratome. Immunohistochemistry was performed on free-floating sections. For SubC, GFAP, and CD68 immunolabeling, primary antibodies included mitochondrial anti-ATP synthase subunit C (Abcam, ab181243; 1:1000), anti-GFAP (Dako, Z0334; 1:5000), anti-CD68 (AbD Serotec, MCA1957; 1:2000), and secondary antibodies included anti-rabbit biotinylated (Vector Labs, BA-1000 1:1000) and anti-rat (Vector Labs, BA-9400 1:1000). Coverslips were mounted on slides using antifade-mounting media and were stored in the dark before imaging. ASM slides were imaged on a Nikon ECLIPSE™ Ni-E upright microscope with a CoolSNAP™ DYNO camera. Images were extracted from S1BF of the somatosensory cortex, CA3 of the hippocampus, and the VPM/VPL of the thalamus, with multiple images taken of multiple tissues from each animal. IHC slides were imaged and analyzed using an Aperio Digital Pathology Slide Scanner (AT2) and associated software. Images were extracted from the S1BF of the somatosensory cortex, the CA3 of the hippocampus, and the VPM/VPL of the thalamus.
In a further experiment, wild type (WT) and mutant primary neuronal cultures (PNCs) were treated with vehicle or semaglutide (10 nM, 100 nM, 1 μM; see FIG. 19). Cells were plated on in vitro day 0 and dosed with drug-containing media on DIV3 and DIV5. Analysis occurred on DIV7. Concentrations of drug are shown on the x-axis above each image column; genotypes are shown to the left of each row. […] Increasing concentrations of AF38469 are shown along the x-axis.

How did the LysoTracker signal (LM11A-31 100 nM, Cln2^R207X PNCs) turn out when `CC[C@H](C)[C@H](N)C(=O)NCCN1CCOCC1` [LM11A-31, N-[2-(morpholin-4-yl)ethyl]-L-isoleucinamide] was run?
Its LysoTracker signal is “significantly reduced”.

And the LysoTracker signal (LM11A-31 1 μM, Cln6^nclf PNCs)?
The LysoTracker signal was “significantly reduced”.

With `Cc1cccc(NC(=O)c2ccc(C(F)(F)F)cc2C(=O)O)n1` [AF38469, 2-((6-methylpyridin-2-yl)carbamoyl)-5-(trifluoromethyl)benzoic acid] as the molecule, how does the LysoTracker signal (40 nM and 400 nM, Cln2^R207X PNCs) read?
Its LysoTracker signal is “had no impact”.

And the LysoTracker signal (40 nM, 400 nM, 4 μM, Cln1^R151X and Cln6^nclf PNCs, DIV7)?
The LysoTracker signal was “significantly reduced”.

And the LysoTracker signal (40 nM, Cln3^Δex7/8 PNCs)?
The LysoTracker signal was “significantly increased”.

What about the LysoTracker signal (40 nM, Cln8^mnd PNCs) of the same molecule?
The LysoTracker signal was “significantly increased”.

And the LysoTracker signal (400 nM, Cln3^Δex7/8 PNCs)?
Its LysoTracker signal is “significantly reduced”.

And the LysoTracker signal (400 nM, Cln8^mnd PNCs)?
The LysoTracker signal was “significantly increased”.

What about the LysoTracker signal (4 μM, Cln2^R207X PNCs) of the same molecule?
Its LysoTracker signal is “significantly reduced”.

What about the LysoTracker signal (4 μM, Cln3^Δex7/8 PNCs) of the same molecule?
The LysoTracker signal was “had no impact”.

And the LysoTracker signal (4 μM, Cln8^mnd PNCs)?
The LysoTracker signal was “had no impact”.

Which results are given for semaglutide?
Lysotracker signal (as printed, FIG. 19B) (semaglutide 10 nM, 100 nM, 1 μM, Cln2^R207X and Cln6^nclf PNCs): significantly reduced; LysoTracker signal (semaglutide 10 nM, 100 nM, 1 μM, Cln3^Δex7/8 PNCs): had no impact; LysoTracker signal (semaglutide 10 nM, 100 nM, 1 μM, Cln6^nclf and Cln8^mnd PNCs): significantly reduced; LysoTracker signal (semaglutide 10 nM, 1 μM, Cln2^R207X PNCs): significantly reduced; LysoTracker signal (semaglutide 10 nM, Cln1^R151X PNCs): significantly elevated; LysoTracker signal (semaglutide 100 nM, 1 μM, Cln1^R151X PNCs): significantly reduced; LysoTracker signal (semaglutide 100 nM, Cln2^R207X PNCs): significantly elevated
